# Reference: PMC5773487, “Harnessing insulin- and leptin-induced oxidation of PTP1B for therapeutic development” (Nature Communications, 2018)
# Entries after “also recorded” stand apart in the source; their conditions may differ.
# T1: PTP1B-OX (Homo sapiens, UniProt P18031)
# T1 construct: Purified PTP1B (1–321) (100 nM) was mixed with increasing concentrations of H2O2; 6xHis (C); made in house; host or cells: E. coli BL21 (DE3)-RIL
# T1 sequence (P18031 1-321): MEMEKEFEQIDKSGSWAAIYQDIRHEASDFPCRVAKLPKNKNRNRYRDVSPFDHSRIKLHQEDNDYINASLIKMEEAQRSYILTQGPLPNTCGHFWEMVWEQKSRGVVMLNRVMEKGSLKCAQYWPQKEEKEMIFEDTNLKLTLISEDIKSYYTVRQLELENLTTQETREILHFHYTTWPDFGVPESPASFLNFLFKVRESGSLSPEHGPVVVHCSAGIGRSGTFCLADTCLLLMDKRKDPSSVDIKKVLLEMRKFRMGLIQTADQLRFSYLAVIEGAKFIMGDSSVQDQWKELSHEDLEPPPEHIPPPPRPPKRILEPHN
# Experiments:
# PTP1B-OX = target: T1, PTP1B-OX; assay: reduction and reactivation of reversibly oxidized PTP1B by TCEP, DiFMUP substrate; assay type: biochemical; conditions: for inhibition of reduction and reactivation (stabilization) of PTP1B-OX: in words
# Protocol: Therefore, our approach has been to adapt this assay, which we used to screen for conformation-sensor scFvs[17], now to screen for small molecules that act through a similar mechanism. Our primary screening assay tested the ability of small molecule inhibitors to antagonize the reduction and reactivation of the oxidized conformation of PTP1B, similar to that of scFv45 (Fig. 4a).
# Purified PTP1B (1–321) (100 nM) was mixed with increasing concentrations of H2O2 (0.05–100 mM) in phosphatase assay buffer (50 mM HEPES, pH 7.0, 100 mM NaCl, 0.1% BSA) at room temperature for 5 min. From this reaction mixture PTP1B (10 nM) was used to monitor phosphatase activity using DiFMUP as the substrate, with or without 5 mM TCEP. Activity of each sample was compared to that of the untreated PTP1B in the presence of 5 mM TCEP.
# To screen the LOPAC library against PTP1B-OX, 0.5 μl of 1 mM compound in 100% DMSO was added to 384-well plates, resulting in a final compound concentration of 10 μM for the primary screen. Recombinant PTP1B (100 nM) was reversibly oxidized and inactivated with H2O2 (4 mM). The phosphatase activity was restored by a quick buffer exchange and addition of reducing agent (TCEP). PTP1B-OX was incubated with LOPAC compounds (10 μM) in the assay buffer (50 mM HEPES pH 7.0, 100 mM NaCl, 0.005% Tween, 2 mM EDTA) and the effect of individual compound on stabilizing the reversibly oxidized conformation was assessed by the phosphatase assay under reducing conditions using DiFMUP as substrate. scFv45 was used as positive control.
# [1] = test system: insulin signaling in liver, leptin signaling in hypothalamus; assay: insulin and leptin signaling in liver and hypothalamus lysates of treated mice; assay type: in vivo; conditions: HFD mice
# Protocol: Fig. 9 Chelerythrine improved metabolism and promoted insulin and leptin signaling in mice. a Body weight of male mice (C57bl6/J) fed high fat diet and treated with chelerythrine (3 mg kg^−1), protopine (3 mg kg^−1) or saline was monitored from the beginning of the treatment (10 weeks of age) until the study was terminated (14 weeks of age). Data represent the mean ± s.e.m. (n = 10 in each group). b HFD fed 14-week-old male mice treated with saline or chelerythrine were administered D-glucose (2 mg g^−1 body weight), and blood glucose was monitored over the defined time. Data represent the mean ± s.e.m. (n = 10 in each group) and statistical analysis was performed using two-way ANOVA (*p < 0.05, **p < 0.01). c HFD fed 14-week-old male mice treated with saline or chelerythrine were administered insulin (0.75 mU g^−^1 body weight), and blood glucose was monitored over the defined time. Data represent mean ± s.e.m. (n = 10 in each group) and statistical analysis was performed using two-way ANOVA (*p < 0.05). d Representative immunoblots showing insulin-induced tyrosine phosphorylation of IR-β and phosphorylation of AKT, and their corresponding total protein levels, in liver tissue lysates from 14-week-old male mice treated with saline, chelerythrine or protopine. For insulin stimulation, animals were treated with insulin (0.75 mU g^−1, i.p.) for 15 min. e Representative immunoblots showing leptin-induced tyrosine phosphorylation of JAK2 and corresponding total JAK2 levels in the hypothalamus tissue lysates from 14-week-old male mice treated with saline, chelerythrine or protopine. For leptin stimulation, animals were treated with leptin (1 mg kg^−^1, s.c.) for 15 min. All immunoblots are representative of tissue lysates generated from at least three independent animals for each condition (n = 3). Immunoblots were quantified using ImageJ software. Quantitation includes all independent data from the respective experiments and is presented as the mean ± s.e.m. d, e Statistical analysis was performed using two-way ANOVA (*p < 0.05)
# Animal experiments were performed according to protocols approved by the Institutional Animal Use and Care Committee of Cold Spring Harbor laboratory. Ten week-old male C57bl6/J mice fed chow diet or high fat diet (D12492) were acclimatized for 10 days under standard conditions before experiments. Mice were intraperitoneally (i.p.) injected once daily with vehicle, 3 mg kg^−1 of chelerythrine or 3 mg kg^−1 of protopine for 30 days. Mice were killed after 6 h of fasting, and serum samples were collected to measure the metabolic parameters and tissue samples were collected for studying changes in signaling. No animals were excluded from the analysis.
# [2] = insulin 0.75 mU g−1 i.p. 15 min
Molecule,IC50 relative to sanguinarine (PTP1B-OX),preference for PTP1B-OX over reduced PTP1B (PTP1B-OX),Ki (PTP1B-OX; DiFMUP substrate),"IC50 (PTP1B-OX; wild-type PTP1B-OX, reactivation by TCEP, DiFMUP substrate, read-out: IC50 against PTP1B-OX)","AKT phosphorylation in liver [1, 2]","IR-β phosphorylation in liver [1, 2]",phosphorylation of JAK2 in hypothalamus ([1]; leptin 1 mg kg−1 s.c. 15 min),inhibition of reduction and reactivation (stabilization) of PTP1B-OX (PTP1B-OX)
COc1ccc2c(c[n+](C)c3c4cc5c(cc4ccc23)OCO5)c1OC [chelerythrine],fivefold lower,at least 100 fold,5 µM,5 µM,enhanced,marked increase,enhanced phosphorylation of JAK2,–
CN1CCc2cc3c(cc2C(=O)Cc2ccc4c(c2C1)OCO4)OCO3 [protopine],–,–,–,–,–,not observed,–,did not inhibit; also recorded: ineffective; also recorded: did not stabilize
"scFv45: recombinant conformation-sensor single-chain variable fragment antibody recognizing oxidized PTP1B (antibody, V domains shown) VH: TVTLDESGGGLQAPGGALSLVCKASGFTFSSYDMGWIRQAPGKGLEYVAGITDNGRYASYGSAVDGRATISRDNGQSSVRLQLNNLRAEDTGTYYCARDDGSGWTGNSIDAWGHGTEVIVSE VL: ALTQPSSVSANPGGTVKITCSGSSSAYGYGWYQQKSPGSAPVTVIYNNNKRPSNIPSRFSGSKSGSTGTLTITGVQAEDEAVYFCGSEDSSTDAIFGAGTTLTVL",–,–,–,–,–,–,–,impaired in a dose-dependent manner
